Assay results published in patent publication US11286263B2, “Macrocyclic fluorine substituted indole derivatives” (The Broad Institute, Inc., priority 2017, dated 2022).

Experiments:
MCL-1 = MCL-1 (Homo sapiens (Human), UniProt Q07820, K194A/K197A/R201A); experiment: Protein-protein interaction assay MCL-1/Noxa BH3 peptide (MCL-1 assay), TR-FRET; type: binding; settings: MCL-1/Noxa BH3 peptide TR-FRET; median
In short: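 TR-FRET competition between MBP-MCL-1 (173-321, 1 nM) and biotin-Noxa BH3 peptide (1 nM) with anti-MBP-Eu/streptavidin-XL665; 11 compound levels 0.1 nM–20 μM, 10 min preincubation. Incubated 1 h at 22 °C then overnight at 4 °C, pH 7 Tris buffer. 665/620 ratio normalized to DMSO and no-MCL-1; 4-parameter IC50.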

SUDHL5 = experiment: Induction of caspase-3/7 activity, SUDHL5 (Assay 4); type: cell-based; settings: Homo sapiens, SU-DHL-5, 3 h, SUDHL5 cells, Caspase-Glo 3/7, median
In short: (§1)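 DLBCL lines treated with compounds for 3 h at 37° C.; caspase-3/7 activity read by Caspase-Glo 3/7 luminescence. Medium-only background subtracted; EC50 fitted with bottom fixed at 1 and top set to reference compound's maximal induction.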

SUDHL10 = experiment: Induction of caspase-3/7 activity, SUDHL10 (Assay 4); type: cell-based; settings: SUDHL10 cells
In short: as §1

[1] = Homo sapiens, SU-DHL10, 3 h, Caspase-Glo 3/7, median

Sequence of MCL-1 (Q07820 whole entry K194A/K197A/R201A, looked up): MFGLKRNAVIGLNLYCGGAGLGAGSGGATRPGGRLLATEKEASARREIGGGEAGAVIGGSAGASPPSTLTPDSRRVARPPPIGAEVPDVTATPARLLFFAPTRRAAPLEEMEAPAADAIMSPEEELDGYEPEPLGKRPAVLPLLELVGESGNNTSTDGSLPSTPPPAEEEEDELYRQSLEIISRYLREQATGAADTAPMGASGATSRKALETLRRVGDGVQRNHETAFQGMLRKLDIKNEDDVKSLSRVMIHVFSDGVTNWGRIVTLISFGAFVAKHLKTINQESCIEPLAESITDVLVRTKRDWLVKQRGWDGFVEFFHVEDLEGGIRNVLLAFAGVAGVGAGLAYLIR

In the case of `Cc1c2c(nn1C)COCCCCn1c(C(=O)O)c(CCCOc3cccc4ccccc34)c3ccc(F)c-2c31` (racemic) [Example 2, (rac)-4-fluoro-2,3-dimethyl-7-[3-(naphthalen-1-yloxy)propyl]-2,10,11,12,13,15-hexahydro-pyrazolo[4′,3′:9,10][1,6]oxazacycloundecino[8,7,6-hi]indole-8-carboxylic acid], the IC50 (MCL-1) is reported as 1.2 nM, the EC50 (SUDHL5) is reported as 600 nM and the EC50 (SUDHL10; [1]) is reported as 1300 nM.

`CCc1c2c(nn1C)COC/C=C\Cn1c(C(=O)O)c(CCCOc3cccc4ccccc34)c3ccc(F)c-2c31` (racemic) [Example 5, (rac)-(11Z)-3-ethyl-4-fluoro-2-methyl-7-[3-(naphthalen-1-yloxy)propyl]-2,10,13,15-tetrahydro-pyrazolo[4′,3′:9,10][1,6]oxazacycloundecino[8,7,6-hi]indole-8-carboxylic acid] gave an IC50 (MCL-1) of 2.3 nM, an EC50 (SUDHL5) of 1000 nM and an EC50 (SUDHL10; [1]) of 3500 nM.

`Cc1c2c(nn1C)COCCCCn1c(C(=O)O)c(CCCOc3ccc(F)c4ccccc34)c3ccc(F)c-2c31` (racemic) [Example 15, (rac)-13-fluoro-1-(3-((4-fluoronaphthalen-1-yl)oxy)propyl)-11,12-dimethyl-4,5,6,7,9,11-hexahydropyrazolo[4′,3′:9,10][1]oxa[6]azacycloundecino[8,7,6-hi]indole-2-carboxylic acid] showed an IC50 (MCL-1) of 1.3 nM, an EC50 (SUDHL5) of 970 nM and an EC50 (SUDHL10; [1]) of 5800 nM.

`CCc1c2c(nn1C)CN(C)CCCCn1c(C(=O)O)c(CCCOc3cccc4c3CCC4)c3ccc(F)c-2c31` (racemic) [Example 51, (rac)-7-[3-(2,3-dihydro-1H-inden-4-yloxy)propyl]-3-ethyl-4-fluoro-2,14-dimethyl-10,11,12,13,14,15-hexahydro-2H-pyrazolo[3′,4′:8,9][1,6]diazacycloundecino[10,11,1-hi]indole-8-carboxylic acid] gave an IC50 (MCL-1) of 0.91 nM, an EC50 (SUDHL5) of 230 nM and an EC50 (SUDHL10; [1]) of 440 nM.

With `CCc1c2c(nn1C)CN(C)CCCCn1c(C(=O)O)c(CCCOc3cccc4c3CCCC4)c3ccc(F)c-2c31` (racemic) [Example 52, (rac)-3-ethyl-4-fluoro-2,14-dimethyl-7-[3-(5,6,7,8-tetrahydronaphthalen-1-yloxy)propyl]-10,11,12,13,14,15-hexahydro-2H-pyrazolo[3′,4′:8,9][1,6]diazacycloundecino[10,11,1-hi]indole-8-carboxylic acid] the IC50 (MCL-1) was 1.7 nM, the EC50 (SUDHL5) was 280 nM and the EC50 (SUDHL10; [1]) was 210 nM.

Compound `CCc1c2c(nn1C)CN(C)CCCCn1c(C(=O)O)c(CCCOc3cccc4cc(F)ccc34)c3ccc(F)c-2c31` (racemic) [Example 53, (rac)-3-ethyl-4-fluoro-7-{3-[(6-fluoro-1-naphthyhoxy]propyl}-2,14-dimethyl-10,11,12,13,14,15-hexahydro-2H-pyrazolo[3′,4′:8,9][1,6]diazacycloundecino[10,11,1-hi]indole-8-carboxylic acid] has an IC50 (MCL-1) of 0.91 nM, an EC50 (SUDHL5) of 380 nM and an EC50 (SUDHL10; [1]) of 490 nM.

Compound `CCc1c2c(nn1C)CN(C)CCCCn1c(C(=O)O)c(CCCOc3cccc4ccccc34)c3ccc(F)c-2c31` (racemic) [Example 54, (rac)-3-ethyl-4-fluoro-2,14-dimethyl-7-[3-(1-naphthyloxy)propyl]-10,11,12,13,14,15-hexahydro-2H-pyrazolo[3′,4′:8,9][1,6]diazacycloundecino[10,11,1-hi]indole-8-carboxylic acid] has an IC50 (MCL-1) of 0.72 nM, an EC50 (SUDHL5) of 230 nM and an EC50 (SUDHL10; [1]) of 680 nM.

With `CCc1c2c(nn1C)COCCCCn1c(C(=O)O)c(CCCOc3cccc4cc(F)ccc34)c3ccc(F)c-2c31` (single isomer, unassigned; enantiomer 1) [Example 24, 3-ethyl-4-fluoro-7-{3-[(6-fluoronaphthalen-1-yl)oxy]propyl}-2-methyl-2,10,11,12,13,15-hexahydropyrazolo[4′,3′:9,10][1,6]oxazacycloundecino[8,7,6-hi]indole-8-carboxylic acid (enantiomer 1)] the IC50 (MCL-1) was 0.58 nM and the EC50 (SUDHL10; 3 h, Caspase-Glo 3/7, median) was 540 nM.
